Test results: PMC4450297, “Screening Active Compounds from Garcinia Species Native to China Reveals Novel Compounds Targeting the STAT/JAK Signaling Pathway” (BioMed Research International, 2015)

System: ChaGo-K-1
Experiment: Cell panel screen (CellTiter-Glo)
Assay type: cell-based, human
Settings: ChaGo-K-1 (Lung), 20 micromolar, 72 hrs
Protocol: (§1) All cells were obtained from the cell bank of the American Type Culture Collection (ATCC) and cultured in the supplier's recommended media supplemented with 10% FBS. The cell panel screen was measured using the CellTiter-Glo assay (Promega, Madison, WI) following a standard protocol. Briefly, cancer cells were seeded in 96-well plates and cultured overnight at 37°C with or without 5% CO2 in an incubator. Each compound was dissolved with limited DMSO and diluted to a certain concentration with culture medium and then added to the corresponding well of the cell plate. The final concentration of compound was 20 μM. The control cells (without treatment) received the same amount of DMSO and were incubated under the same conditions. After 72 h cultivation, 100 μL of the CellTiter-Glo reagent was added directly to each well for 10-minute incubation. The plate was then read on a FlexStation 3 microplate luminometer (Molecular Devices, USA) to monitor the luminescence signal generated by the luciferase-catalyzed reaction of luciferin and ATP. The percent of growth inhibition was calculated using the following formula: (untreated cells − treated cells)/(untreated cells − background without cells) ∗ 100.

SMILES | Percent Inhibition
COc1cc(O)c2c(=O)c3cc(CC=C(C)C)c(O)c(O)c3oc2c1CC=C(C)C [Go-15] | 11%

System: HEC-1-A
Experiment: Cell panel screen (CellTiter-Glo)
Assay type: cell-based, human
Settings: HEC-1-A (Uterus), 20 micromolar, 72 hrs
Protocol: as §1

SMILES | Percent Inhibition
COc1cc(O)c2c(=O)c3cc(CC=C(C)C)c(O)c(O)c3oc2c1CC=C(C)C [Go-15] | 67%

System: HCC1569
Experiment: Cell panel screen (CellTiter-Glo)
Assay type: cell-based, human
Settings: HCC1569 (Breast), 20 micromolar, 72 hrs
Protocol: as §1

SMILES | Percent Inhibition
COc1cc(O)c2c(=O)c3cc(CC=C(C)C)c(O)c(O)c3oc2c1CC=C(C)C [Go-15] | 86%

System: Colo 205
Experiment: Cell panel screen (CellTiter-Glo)
Assay type: cell-based, human
Settings: Colo 205, 20 micromolar, 72 hrs
Protocol: as §1

SMILES | Percent Inhibition
COc1cc(O)c2c(=O)c3cc(CC=C(C)C)c(O)c(O)c3oc2c1CC=C(C)C [Go-15] | 89%

System: C8166
Experiment: Cell panel screen (CellTiter-Glo)
Assay type: cell-based, human
Settings: C8166 (Leukemia), 20 micromolar, 72 hrs
Protocol: as §1

SMILES | Percent Inhibition
COc1cc(O)c2c(=O)c3cc(CC=C(C)C)c(O)c(O)c3oc2c1CC=C(C)C [Go-15] | 93%

System: HCC1599
Experiment: Cell panel screen (CellTiter-Glo)
Assay type: cell-based, human
Settings: HCC1599 (Breast), 20 micromolar, 72 hrs
Protocol: as §1

SMILES | Percent Inhibition
COc1cc(O)c2c(=O)c3cc(CC=C(C)C)c(O)c(O)c3oc2c1CC=C(C)C [Go-15] | 62%

System: M059J
Experiment: Cell panel screen (CellTiter-Glo)
Assay type: cell-based, human
Settings: M059J (Brain), 20 micromolar, 72 hrs
Protocol: as §1

SMILES | Percent Inhibition
COc1cc(O)c2c(=O)c3cc(CC=C(C)C)c(O)c(O)c3oc2c1CC=C(C)C [Go-15] | 88%

System: HPAF-II
Experiment: Cell panel screen (CellTiter-Glo)
Assay type: cell-based, human
Settings: HPAF-II (Pancreas), 20 micromolar, 72 hrs
Protocol: as §1

SMILES | Percent Inhibition
COc1cc(O)c2c(=O)c3cc(CC=C(C)C)c(O)c(O)c3oc2c1CC=C(C)C [Go-15] | 72%

System: NCI-H1770
Experiment: Cell panel screen (CellTiter-Glo)
Assay type: cell-based, human
Settings: NCI-H1770 (Lung), 20 micromolar, 72 hrs
Protocol: as §1

SMILES | Percent Inhibition
COc1cc(O)c2c(=O)c3cc(CC=C(C)C)c(O)c(O)c3oc2c1CC=C(C)C [Go-15] | 75%

System: HT-1197
Experiment: Cell panel screen (CellTiter-Glo)
Assay type: cell-based, human
Settings: HT-1197 (Urinary bladder), 20 micromolar, 72 hrs
Protocol: as §1

SMILES | Percent Inhibition
COc1cc(O)c2c(=O)c3cc(CC=C(C)C)c(O)c(O)c3oc2c1CC=C(C)C [Go-15] | 51%

System: T98G
Experiment: Cell panel screen (CellTiter-Glo)
Assay type: cell-based, human
Settings: T98G (Brain), 20 micromolar, 72 hrs
Protocol: as §1

SMILES | Percent Inhibition
COc1cc(O)c2c(=O)c3cc(CC=C(C)C)c(O)c(O)c3oc2c1CC=C(C)C [Go-15] | 98%

System: HCC1937
Experiment: Cell panel screen (CellTiter-Glo)
Assay type: cell-based, human
Settings: HCC1937 (Breast), 20 micromolar, 72 hrs
Protocol: as §1

SMILES | Percent Inhibition
COc1cc(O)c2c(=O)c3cc(CC=C(C)C)c(O)c(O)c3oc2c1CC=C(C)C [Go-15] | 85%

System: A704
Experiment: Cell panel screen (CellTiter-Glo)
Assay type: cell-based, human
Settings: A704 (Kidney), 20 micromolar, 72 hrs
Protocol: as §1

SMILES | Percent Inhibition
COc1cc(O)c2c(=O)c3cc(CC=C(C)C)c(O)c(O)c3oc2c1CC=C(C)C [Go-15] | 92%

System: NCI-H2405
Experiment: Cell panel screen (CellTiter-Glo)
Assay type: cell-based, human
Settings: NCI-H2405 (Lung), 20 micromolar, 72 hrs
Protocol: as §1

SMILES | Percent Inhibition
COc1cc(O)c2c(=O)c3cc(CC=C(C)C)c(O)c(O)c3oc2c1CC=C(C)C [Go-15] | 50%

System: HGC-27
Experiment: Cell panel screen (CellTiter-Glo)
Assay type: cell-based, human
Settings: HGC-27 (Stomach), 20 micromolar, 72 hrs
Protocol: as §1

SMILES | Percent Inhibition
COc1cc(O)c2c(=O)c3cc(CC=C(C)C)c(O)c(O)c3oc2c1CC=C(C)C [Go-15] | 98%

System: C3A
Experiment: Cell panel screen (CellTiter-Glo)
Assay type: cell-based, human
Settings: C3A (Liver), 20 micromolar, 72 hrs
Protocol: as §1

SMILES | Percent Inhibition
COc1cc(O)c2c(=O)c3cc(CC=C(C)C)c(O)c(O)c3oc2c1CC=C(C)C [Go-15] | 60%

System: NCI-H1694
Experiment: Cell panel screen (CellTiter-Glo)
Assay type: cell-based, human
Settings: NCI-H1694 (Lung), 20 micromolar, 72 hrs
Protocol: as §1

SMILES | Percent Inhibition
COc1cc(O)c2c(=O)c3cc(CC=C(C)C)c(O)c(O)c3oc2c1CC=C(C)C [Go-15] | 97%

System: NCI-H2347
Experiment: Cell panel screen (CellTiter-Glo)
Assay type: cell-based, human
Settings: NCI-H2347 (Lung), 20 micromolar, 72 hrs
Protocol: as §1

SMILES | Percent Inhibition
COc1cc(O)c2c(=O)c3cc(CC=C(C)C)c(O)c(O)c3oc2c1CC=C(C)C [Go-15] | 51%

System: CCF-STTG1
Experiment: Cell panel screen (CellTiter-Glo)
Assay type: cell-based, human
Settings: CCF-STTG1 (Brain), 20 micromolar, 72 hrs
Protocol: as §1

SMILES | Percent Inhibition
COc1cc(O)c2c(=O)c3cc(CC=C(C)C)c(O)c(O)c3oc2c1CC=C(C)C [Go-15] | 84%

System: HCC1395
Experiment: Cell panel screen (CellTiter-Glo)
Assay type: cell-based, human
Settings: HCC1395 (Breast), 20 micromolar, 72 hrs
Protocol: as §1

SMILES | Percent Inhibition
COc1cc(O)c2c(=O)c3cc(CC=C(C)C)c(O)c(O)c3oc2c1CC=C(C)C [Go-15] | 25%

System: Bel-7402
Experiment: Cell panel screen (CellTiter-Glo)
Assay type: cell-based, human
Settings: Bel-7402 (Liver), 20 micromolar, 72 hrs
Protocol: as §1

SMILES | Percent Inhibition
COc1cc(O)c2c(=O)c3cc(CC=C(C)C)c(O)c(O)c3oc2c1CC=C(C)C [Go-15] | 64%

System: NCI-H524
Experiment: Cell panel screen (CellTiter-Glo)
Assay type: cell-based, human
Settings: NCI-H524 (Lung), 20 micromolar, 72 hrs
Protocol: as §1

SMILES | Percent Inhibition
COc1cc(O)c2c(=O)c3cc(CC=C(C)C)c(O)c(O)c3oc2c1CC=C(C)C [Go-15] | 98%

System: BT-549
Experiment: Cell panel screen (CellTiter-Glo)
Assay type: cell-based, human
Settings: BT-549 (Breast), 20 micromolar, 72 hrs
Protocol: as §1

SMILES | Percent Inhibition
COc1cc(O)c2c(=O)c3cc(CC=C(C)C)c(O)c(O)c3oc2c1CC=C(C)C [Go-15] | 87%

System: J82
Experiment: Cell panel screen (CellTiter-Glo)
Assay type: cell-based, human
Settings: J82 (Urinary bladder), 20 micromolar, 72 hrs
Protocol: as §1

SMILES | Percent Inhibition
COc1cc(O)c2c(=O)c3cc(CC=C(C)C)c(O)c(O)c3oc2c1CC=C(C)C [Go-15] | 74%

System: T47D
Experiment: Cell panel screen (CellTiter-Glo)
Assay type: cell-based, human
Settings: T47D (Breast), 20 micromolar, 72 hrs
Protocol: as §1

SMILES | Percent Inhibition
COc1cc(O)c2c(=O)c3cc(CC=C(C)C)c(O)c(O)c3oc2c1CC=C(C)C [Go-15] | 70%

System: CW-2
Experiment: Cell panel screen (CellTiter-Glo)
Assay type: cell-based, human
Settings: CW-2 (Colon), 20 micromolar, 72 hrs
Protocol: as §1

SMILES | Percent Inhibition
COc1cc(O)c2c(=O)c3cc(CC=C(C)C)c(O)c(O)c3oc2c1CC=C(C)C [Go-15] | 96%

System: RL95
Experiment: Cell panel screen (CellTiter-Glo)
Assay type: cell-based, human
Settings: RL95 (Uterus), 20 micromolar, 72 hrs
Protocol: as §1

SMILES | Percent Inhibition
COc1cc(O)c2c(=O)c3cc(CC=C(C)C)c(O)c(O)c3oc2c1CC=C(C)C [Go-15] | 94%

System: NCI-H28
Experiment: Cell panel screen (CellTiter-Glo)
Assay type: cell-based, human
Settings: NCI-H28 (Lung), 20 micromolar, 72 hrs
Protocol: as §1

SMILES | Percent Inhibition
COc1cc(O)c2c(=O)c3cc(CC=C(C)C)c(O)c(O)c3oc2c1CC=C(C)C [Go-15] | 74%

System: A498
Experiment: Cell panel screen (CellTiter-Glo)
Assay type: cell-based, human
Settings: A498 (listed under Lung), 20 micromolar, 72 hrs
Protocol: as §1

SMILES | Percent Inhibition
COc1cc(O)c2c(=O)c3cc(CC=C(C)C)c(O)c(O)c3oc2c1CC=C(C)C [Go-15] | 78%

System: BT-474
Experiment: Cell panel screen (CellTiter-Glo)
Assay type: cell-based, human
Settings: BT-474 (Breast), 20 micromolar, 72 hrs
Protocol: as §1

SMILES | Percent Inhibition
COc1cc(O)c2c(=O)c3cc(CC=C(C)C)c(O)c(O)c3oc2c1CC=C(C)C [Go-15] | 82%

System: NCI-H1623
Experiment: Cell panel screen (CellTiter-Glo)
Assay type: cell-based, human
Settings: NCI-H1623 (Lung), 20 micromolar, 72 hrs
Protocol: as §1

SMILES | Percent Inhibition
COc1cc(O)c2c(=O)c3cc(CC=C(C)C)c(O)c(O)c3oc2c1CC=C(C)C [Go-15] | 78%

System: ZR-75-30
Experiment: Cell panel screen (CellTiter-Glo)
Assay type: cell-based, human
Settings: ZR-75-30 (Breast), 20 micromolar, 72 hrs
Protocol: as §1

SMILES | Percent Inhibition
COc1cc(O)c2c(=O)c3cc(CC=C(C)C)c(O)c(O)c3oc2c1CC=C(C)C [Go-15] | 83%

System: SW13
Experiment: Cell panel screen (CellTiter-Glo)
Assay type: cell-based, human
Settings: SW13 (Adrenal gland), 20 micromolar, 72 hrs
Protocol: as §1

SMILES | Percent Inhibition
COc1cc(O)c2c(=O)c3cc(CC=C(C)C)c(O)c(O)c3oc2c1CC=C(C)C [Go-15] | 95%

System: Panc 03.27
Experiment: Cell panel screen (CellTiter-Glo)
Assay type: cell-based, human
Settings: Panc 03.27 (Pancreas), 20 micromolar, 72 hrs
Protocol: as §1

SMILES | Percent Inhibition
COc1cc(O)c2c(=O)c3cc(CC=C(C)C)c(O)c(O)c3oc2c1CC=C(C)C [Go-15] | 86%

System: MSTO-211-H
Experiment: Cell panel screen (CellTiter-Glo)
Assay type: cell-based, human
Settings: MSTO-211-H (Lung), 20 micromolar, 72 hrs
Protocol: as §1

SMILES | Percent Inhibition
COc1cc(O)c2c(=O)c3cc(CC=C(C)C)c(O)c(O)c3oc2c1CC=C(C)C [Go-15] | 69%

System: TCCSUP
Experiment: Cell panel screen (CellTiter-Glo)
Assay type: cell-based, human
Settings: TCCSUP (Urinary bladder), 20 micromolar, 72 hrs
Protocol: as §1

SMILES | Percent Inhibition
COc1cc(O)c2c(=O)c3cc(CC=C(C)C)c(O)c(O)c3oc2c1CC=C(C)C [Go-15] | 88%
